Data from patent publication US11999727B2 (Tango Therapeutics, Inc., priority 2020, dated 2024).

Experiments:
[1] = biological target: T1, PRMT5 (Homo sapiens, UniProt O14744); experiment: PRMT5 biochemical IC50 assay with SAM as cofactor; details: PRMT5, SAM as cofactor; read-out: SAM IC50
T1 construct: purchased Viva (custom protein)

[2] = biological target: T1, PRMT5; experiment: PRMT5 biochemical IC50 assay with no cofactor; details: PRMT5, no cofactor; read-out: No Cofactor/rel IC50
Excerpt: Table 1 indicates IC50 values (μM) against PRMT5 for exemplary compounds in the presence of SAM as cofactor, with no cofactor, and with MTA as cofactor, respectively (columns 4-6). […] Ki values can be calculated from the IC50 values as described in the Examples section. As detailed in the Examples section, for the assay performed in the presence of SAM, IC50=Ki×1.5 (Ki=IC50/1.5).

[3] = biological target: T1, PRMT5; experiment: PRMT5 biochemical IC50 assay with MTA as cofactor; details: PRMT5, MTA as cofactor; read-out: MTA IC50
[4] = tested on: HAP1 MTAP-intact cell line; experiment: SDMA in-cell western assay, HAP1 MTAP-intact; assay type: cell-based; details: Homo sapiens, HAP1, SDMA in-cell western, HAP1 MTAP-intact; read-out: MTAP HAP1 intact IC50
Summary of the method: (§1)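 Isogenic HAP1 pair: the MTAP-intact line expresses endogenous MTAP, and the deleted line is MTAP-null. Symmetric dimethylarginine was detected by in-cell western and IC50 values derived for each line.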

[5] = tested on: HAP1 MTAP-deleted cell line; experiment: SDMA in-cell western assay, HAP1 MTAP-deleted; assay type: cell-based; details: for IC50: Homo sapiens, HAP1, SDMA in-cell western, HAP1 MTAP-deleted, read-out: HAP1 MTAP deleted IC50; for MTAP intact/deleted ratio: IC50 ratio HAP1 MTAP-intact / HAP1 MTAP-deleted, SDMA in-cell western
Summary of the method: as §1

[6] = tested on: HAP1 MTAP-deleted cell line; experiment: Viability assay, MTAP-deleted cell line; assay type: cell-based; details: Homo sapiens, HAP1, viability assay, MTAP-deleted cell line; read-out: HAP1 MTAP deleted viability
Excerpt: Table 1 additionally indicates IC50 values in a viability assay for the MTAP-deleted cell line (column 10), indicating the effect of treatment with compound on cell survival.

T1 sequence (O14744 whole entry): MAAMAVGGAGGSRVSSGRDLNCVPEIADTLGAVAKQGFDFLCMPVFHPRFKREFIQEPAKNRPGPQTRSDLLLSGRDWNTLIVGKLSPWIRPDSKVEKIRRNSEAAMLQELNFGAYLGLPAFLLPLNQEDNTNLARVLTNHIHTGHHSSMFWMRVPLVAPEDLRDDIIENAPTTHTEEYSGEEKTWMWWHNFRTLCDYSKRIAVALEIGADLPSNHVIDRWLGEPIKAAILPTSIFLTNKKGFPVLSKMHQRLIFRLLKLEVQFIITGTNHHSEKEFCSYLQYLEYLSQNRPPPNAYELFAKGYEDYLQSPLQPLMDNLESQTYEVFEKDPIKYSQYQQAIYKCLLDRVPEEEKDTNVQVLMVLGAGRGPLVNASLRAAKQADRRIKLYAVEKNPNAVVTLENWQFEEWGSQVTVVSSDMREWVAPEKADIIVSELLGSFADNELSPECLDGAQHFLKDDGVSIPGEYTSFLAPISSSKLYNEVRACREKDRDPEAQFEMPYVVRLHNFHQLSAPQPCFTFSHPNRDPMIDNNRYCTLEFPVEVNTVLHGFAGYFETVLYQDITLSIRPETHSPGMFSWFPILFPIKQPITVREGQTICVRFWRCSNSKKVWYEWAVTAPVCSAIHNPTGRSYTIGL
T1 sequence (Q9BQA1 whole entry partner): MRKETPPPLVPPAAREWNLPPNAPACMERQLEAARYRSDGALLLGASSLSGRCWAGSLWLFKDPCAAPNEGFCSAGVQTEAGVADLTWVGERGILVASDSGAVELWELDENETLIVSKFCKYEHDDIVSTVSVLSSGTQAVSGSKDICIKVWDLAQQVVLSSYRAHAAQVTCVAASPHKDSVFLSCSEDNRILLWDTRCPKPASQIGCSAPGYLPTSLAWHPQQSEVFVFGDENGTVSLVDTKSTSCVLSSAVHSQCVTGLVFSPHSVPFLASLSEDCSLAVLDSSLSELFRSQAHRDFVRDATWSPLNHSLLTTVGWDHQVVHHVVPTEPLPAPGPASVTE

Row | SMILES | IC50 [1] [nM] | IC50 [2] [nM] | IC50 [3] [nM] | IC50 [4] [nM] | IC50 [5] [nM] | MTAP intact/deleted ratio [5] | IC50 [6] [nM]
1 | C[C@@H]1CC[C@@H](c2ccc(C#N)c(C3CC3)c2)N(C(=O)C(=O)Nc2cncc(C(N)=O)c2)C1 (racemic) [Compound 244, rac-5-{2-[(2R,5S)-2-(4-Cyano-3-cyclopropylphenyl)-5-methylpiperidin-1-yl]-2-oxoacetamido}pyridine-3-carboxamide] | 50 to 500 | 50 to 500 | < 50 | > 1000 | < 100 | A (an IC50 ratio greater than or equal to 10 fold) | 1000 to 10000
2 | C[C@@H]1CC[C@@H](c2ccc(C#N)cc2)N(C(=O)C(=O)Nc2cncc(C(N)=O)c2)C1 (racemic) [Compound 246, rac-5-{2-[(2R,5S)-2-(4-Cyanophenyl)-5-methylpiperidin-1-yl]-2-oxoacetamido}pyridine-3-carboxamide] | 50 to 500 | 50 to 500 | < 50 | > 1000 | 100 to 1000 | A (an IC50 ratio greater than or equal to 10 fold) | 1000 to 10000
3 | C[C@@H]1CC[C@@H](c2cccc(F)c2)N(C(=O)C(=O)Nc2cncc(C(N)=O)c2)C1 (racemic) [Compound 247, rac-5-{2-[(2R,5S)-2-(3-Fluorophenyl)-5-methylpiperidin-1-yl]-2-oxoacetamido}pyridine-3-carboxamide] | 50 to 500 | 50 to 500 | < 50 | > 1000 | < 100 | A (an IC50 ratio greater than or equal to 10 fold) | 1000 to 10000
4 | C[C@@H]1CC[C@@H](c2cncc(F)c2)N(C(=O)C(=O)Nc2cncc(C(N)=O)c2)C1 (racemic) [Compound 248, rac-5-{2-[(2R,5S)-2-(5-Fluoropyridin-3-yl)-5-methylpiperidin-1-yl]-2-oxoacetamido}pyridine-3-carboxamide] | > 500 | > 500 | 50 to 500 | > 1000 | > 1000 | B (an IC50 ratio greater than or equal to 3 fold but lower than 10 fold) | > 10000
5 | CNC(=O)[C@@H]1CC[C@@H](c2ccccc2)N(C(=O)C(=O)Nc2cnc(N)c(C)c2)C1 (racemic) [Compound 249, 1-(2-((6-amino-5-methylpyridin-3-yl)amino)-2-oxoacetyl)-N-methyl-6-phenylpiperidine-3-carboxamide] | 50 to 500 | > 500 | 50 to 500 | > 1000 | > 1000 | C (an IC50 ratio of less than 3 fold) | > 10000
6 | C[C@@H]1CC[C@@H](c2ccc(OC(F)(F)F)cc2)N(C(=O)C(=O)Nc2cncc(C(N)=O)c2)C1 (racemic) [Compound 250, rac-5-{2-[(2R,5S)-5-Methyl-2-[4-(trifluoromethoxy)phenyl]piperidin-1-yl]-2-oxoacetamido}pyridine-3-carboxamide] | 50 to 500 | 50 to 500 | < 50 | > 1000 | < 100 | A (an IC50 ratio greater than or equal to 10 fold) | 1000 to 10000
7 | C[C@@H]1CC[C@@H](c2ccc(C(F)(F)F)cc2)N(C(=O)C(=O)Nc2cncc(C(N)=O)c2)C1 (racemic) [Compound 251, rac-5-{2-[(2R,5S)-5-Methyl-2-[4-(trifluoromethyl)phenyl]piperidin-1-yl]-2-oxoacetamido}pyridine-3-carboxamide] | 50 to 500 | 50 to 500 | < 50 | > 1000 | < 100 | A (an IC50 ratio greater than or equal to 10 fold) | 1000 to 10000
8 | C[C@@H]1CC[C@@H](c2ccc(Cn3cncn3)cc2)N(C(=O)C(=O)Nc2cncc(C(N)=O)c2)C1 (racemic) [Compound 252, rac-5-{2-[(2R,5S)-5-Methyl-2-{4-[(1H-1,2,4-triazol-1-yl)methyl]phenyl}piperidin-1-yl]-2-oxoacetamido}pyridine-3-carboxamide] | 50 to 500 | 50 to 500 | < 50 | > 1000 | 100 to 1000 | A (an IC50 ratio greater than or equal to 10 fold) | > 10000
9 | CNC(=O)[C@@H]1CC[C@H](c2ccccc2)N(C(=O)C(=O)Nc2cnc(N)c(C)c2)C1 (racemic) [Compound 253, 1-(2-((6-amino-5-methylpyridin-3-yl)amino)-2-oxoacetyl)-N-methyl-6-phenylpiperidine-3-carboxamide] | 50 to 500 | > 500 | 50 to 500 | > 1000 | > 1000 | C (an IC50 ratio of less than 3 fold) | > 10000
10 | C[C@@H]1CC[C@@H](c2ccc(F)c(C(F)(F)F)c2)N(C(=O)C(=O)Nc2cncc(C(N)=O)c2)C1 (racemic) [Compound 255, rac-5-{2-[(2R,5S)-2-[4-Fluoro-3-(trifluoromethyl)phenyl]-5-methylpiperidin-1-yl]-2-oxoacetamido}pyridine-3-carboxamide] | 50 to 500 | 50 to 500 | < 50 | > 1000 | 100 to 1000 | A (an IC50 ratio greater than or equal to 10 fold) | 1000 to 10000
11 | C[C@@H]1CC[C@@H](c2ccc(-n3cccn3)cc2)N(C(=O)C(=O)Nc2cncc(C(N)=O)c2)C1 (racemic) [Compound 256, rac-5-{2-[(2R,5S)-5-Methyl-2-[4-(1H-pyrazol-1-yl)phenyl]piperidin-1-yl]-2-oxoacetamido}pyridine-3-carboxamide] | 50 to 500 | 50 to 500 | < 50 | > 1000 | < 100 | A (an IC50 ratio greater than or equal to 10 fold) | 1000 to 10000
12 | C[C@@H]1CC[C@@H](c2cnc3ccccc3c2)N(C(=O)C(=O)Nc2cncc(C(N)=O)c2)C1 (racemic) [Compound 257, rac-5-{2-[(2R,5S)-5-Methyl-2-(quinolin-3-yl)piperidin-1-yl]-2-oxoacetamido}pyridine-3-carboxamide] | > 500 | > 500 | 50 to 500 | > 1000 | > 1000 | B (an IC50 ratio greater than or equal to 3 fold but lower than 10 fold) | > 10000
13 | C[C@@H]1CC[C@@H](c2ccc(C3(O)CCC3)cc2)N(C(=O)C(=O)Nc2cncc(C(N)=O)c2)C1 (racemic) [Compound 259, rac-5-{2-[(2R,5S)-2-[4-(1-Hydroxycyclobutyl)phenyl]-5-methylpiperidin-1-yl]-2-oxoacetamido}pyridine-3-carboxamide] | 50 to 500 | 50 to 500 | 50 to 500 | > 1000 | 100 to 1000 | A (an IC50 ratio greater than or equal to 10 fold) | > 10000
14 | C[C@@H]1CC[C@@H](c2cccc(C3CCC3)c2)N(C(=O)C(=O)Nc2cncc(C(N)=O)c2)C1 (racemic) [Compound 261, rac-5-{2-[(2R,5S)-2-(3-Cyclobutylphenyl)-5-methylpiperidin-1-yl]-2-oxoacetamido}pyridine-3-carboxamide] | 50 to 500 | 50 to 500 | < 50 | > 1000 | < 100 | A (an IC50 ratio greater than or equal to 10 fold) | 1000 to 10000
